Type in all cases: biochemical
The target of one experiment is EPH-A4 (Homo sapiens, UniProt P54764). Nature of the experiment: Kinase profiling EPH-A4. The note with it: for remaining activity at 100 µM: read-out: residual kinase activity, EPH-A4. The text has this:
(§1) Any value less that 25 is considered to be highly significant inhibition.

The next experiment deals with HIPK3 (Homo sapiens, UniProt Q9H422). Nature of the experiment: Kinase profiling HIPK3. The note with it: for remaining activity at 100 µM: read-out: residual kinase activity, HIPK3.
HIPK3, sequence (Q9H422 whole entry, species assumed): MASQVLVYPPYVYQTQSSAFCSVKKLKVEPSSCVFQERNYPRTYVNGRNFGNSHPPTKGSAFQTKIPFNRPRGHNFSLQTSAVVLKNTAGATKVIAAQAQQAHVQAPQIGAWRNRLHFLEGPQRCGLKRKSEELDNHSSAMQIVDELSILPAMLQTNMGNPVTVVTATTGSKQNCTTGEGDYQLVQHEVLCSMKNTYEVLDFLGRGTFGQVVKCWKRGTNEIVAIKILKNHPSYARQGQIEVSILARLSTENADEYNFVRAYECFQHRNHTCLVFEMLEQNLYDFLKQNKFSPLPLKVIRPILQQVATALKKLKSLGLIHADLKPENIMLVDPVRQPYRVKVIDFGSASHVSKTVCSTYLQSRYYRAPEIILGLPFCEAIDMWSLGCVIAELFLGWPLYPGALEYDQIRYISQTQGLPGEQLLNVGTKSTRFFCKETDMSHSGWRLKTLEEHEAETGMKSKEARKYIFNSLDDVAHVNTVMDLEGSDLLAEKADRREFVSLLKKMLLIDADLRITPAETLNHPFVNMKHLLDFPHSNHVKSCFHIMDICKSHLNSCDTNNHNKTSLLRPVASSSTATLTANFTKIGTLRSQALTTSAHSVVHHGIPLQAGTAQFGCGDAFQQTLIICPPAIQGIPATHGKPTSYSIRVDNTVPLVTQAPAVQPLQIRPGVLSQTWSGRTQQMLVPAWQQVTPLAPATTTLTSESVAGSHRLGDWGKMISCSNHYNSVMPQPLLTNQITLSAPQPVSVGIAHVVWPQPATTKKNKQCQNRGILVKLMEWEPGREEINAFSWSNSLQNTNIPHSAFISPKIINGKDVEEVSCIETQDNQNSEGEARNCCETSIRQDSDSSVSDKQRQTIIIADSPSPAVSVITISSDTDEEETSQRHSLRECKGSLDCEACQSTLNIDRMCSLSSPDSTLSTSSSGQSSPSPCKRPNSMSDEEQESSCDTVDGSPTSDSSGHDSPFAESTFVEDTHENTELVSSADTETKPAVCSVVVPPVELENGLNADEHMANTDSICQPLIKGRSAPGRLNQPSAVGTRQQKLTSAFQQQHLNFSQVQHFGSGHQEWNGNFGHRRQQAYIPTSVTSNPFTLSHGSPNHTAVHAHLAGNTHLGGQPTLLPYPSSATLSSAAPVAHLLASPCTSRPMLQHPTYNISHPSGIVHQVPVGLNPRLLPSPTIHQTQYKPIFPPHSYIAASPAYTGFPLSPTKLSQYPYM
Source text: as §1

In a further experiment the target is HIPK1 (Homo sapiens, UniProt Q86Z02). Put plainly: Kinase profiling HIPK1. The note with it: for remaining activity at 100 µM: read-out: residual kinase activity, HIPK1.
HIPK1, sequence (Q86Z02 whole entry, species assumed): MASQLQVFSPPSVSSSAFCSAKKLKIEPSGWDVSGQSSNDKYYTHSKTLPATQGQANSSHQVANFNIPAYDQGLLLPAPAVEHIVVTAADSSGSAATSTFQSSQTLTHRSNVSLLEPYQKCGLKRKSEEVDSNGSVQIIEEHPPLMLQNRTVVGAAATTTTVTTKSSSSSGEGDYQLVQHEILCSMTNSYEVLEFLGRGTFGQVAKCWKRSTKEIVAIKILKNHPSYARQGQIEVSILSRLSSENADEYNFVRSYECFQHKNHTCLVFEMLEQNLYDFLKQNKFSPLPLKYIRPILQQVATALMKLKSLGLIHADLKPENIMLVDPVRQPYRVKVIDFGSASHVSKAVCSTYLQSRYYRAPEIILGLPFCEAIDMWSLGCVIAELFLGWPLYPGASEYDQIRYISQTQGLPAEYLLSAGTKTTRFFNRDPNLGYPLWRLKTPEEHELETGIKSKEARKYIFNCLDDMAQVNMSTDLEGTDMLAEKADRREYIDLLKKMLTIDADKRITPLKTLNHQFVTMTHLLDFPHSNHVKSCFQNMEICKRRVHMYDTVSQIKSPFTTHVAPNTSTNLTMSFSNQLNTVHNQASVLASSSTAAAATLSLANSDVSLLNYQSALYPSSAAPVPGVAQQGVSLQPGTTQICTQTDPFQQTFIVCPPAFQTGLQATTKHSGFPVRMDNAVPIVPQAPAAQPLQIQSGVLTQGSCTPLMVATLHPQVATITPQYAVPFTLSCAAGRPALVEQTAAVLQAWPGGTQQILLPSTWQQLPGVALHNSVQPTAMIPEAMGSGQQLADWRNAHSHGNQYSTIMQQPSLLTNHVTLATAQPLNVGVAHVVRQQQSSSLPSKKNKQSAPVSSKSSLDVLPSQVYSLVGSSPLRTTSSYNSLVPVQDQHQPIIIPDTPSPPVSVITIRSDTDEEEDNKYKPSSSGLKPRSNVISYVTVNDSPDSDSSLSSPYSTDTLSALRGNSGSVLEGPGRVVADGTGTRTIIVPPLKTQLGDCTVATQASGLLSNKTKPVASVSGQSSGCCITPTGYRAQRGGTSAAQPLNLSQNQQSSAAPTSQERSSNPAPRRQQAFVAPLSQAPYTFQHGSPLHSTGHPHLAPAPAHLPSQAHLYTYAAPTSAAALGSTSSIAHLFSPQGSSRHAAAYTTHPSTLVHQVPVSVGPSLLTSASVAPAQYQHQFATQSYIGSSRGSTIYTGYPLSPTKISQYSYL
Source text: as §1

Another experiment has as its target T1, NUAK1 (Homo sapiens, UniProt O60285).
T1 sequence (O60285 1-661): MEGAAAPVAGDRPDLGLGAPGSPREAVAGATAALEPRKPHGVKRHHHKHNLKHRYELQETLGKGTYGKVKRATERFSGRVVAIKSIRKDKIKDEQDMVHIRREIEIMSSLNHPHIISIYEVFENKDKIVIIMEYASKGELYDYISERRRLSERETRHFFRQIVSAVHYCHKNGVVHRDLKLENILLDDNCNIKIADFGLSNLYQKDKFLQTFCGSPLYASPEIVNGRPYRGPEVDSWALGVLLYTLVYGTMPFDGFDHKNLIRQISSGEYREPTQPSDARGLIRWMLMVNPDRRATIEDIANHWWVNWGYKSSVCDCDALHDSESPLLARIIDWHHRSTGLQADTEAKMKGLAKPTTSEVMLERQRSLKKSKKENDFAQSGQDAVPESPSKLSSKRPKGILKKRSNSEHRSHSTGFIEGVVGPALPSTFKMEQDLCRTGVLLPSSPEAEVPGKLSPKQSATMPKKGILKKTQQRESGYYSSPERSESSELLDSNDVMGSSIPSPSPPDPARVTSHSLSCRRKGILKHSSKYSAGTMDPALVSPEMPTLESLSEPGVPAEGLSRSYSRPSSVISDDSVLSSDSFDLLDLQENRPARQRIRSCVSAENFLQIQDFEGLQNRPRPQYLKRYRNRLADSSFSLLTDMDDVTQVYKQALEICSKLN
Nature of the experiment: Kinase profiling NUAK1. The note with it: for remaining activity at 100 µM: read-out: residual kinase activity, NUAK1.
Source text: as §1

A further experiment concerns the target T2, Aurora A (Homo sapiens, UniProt O14965).
T2 sequence (O14965 1-403): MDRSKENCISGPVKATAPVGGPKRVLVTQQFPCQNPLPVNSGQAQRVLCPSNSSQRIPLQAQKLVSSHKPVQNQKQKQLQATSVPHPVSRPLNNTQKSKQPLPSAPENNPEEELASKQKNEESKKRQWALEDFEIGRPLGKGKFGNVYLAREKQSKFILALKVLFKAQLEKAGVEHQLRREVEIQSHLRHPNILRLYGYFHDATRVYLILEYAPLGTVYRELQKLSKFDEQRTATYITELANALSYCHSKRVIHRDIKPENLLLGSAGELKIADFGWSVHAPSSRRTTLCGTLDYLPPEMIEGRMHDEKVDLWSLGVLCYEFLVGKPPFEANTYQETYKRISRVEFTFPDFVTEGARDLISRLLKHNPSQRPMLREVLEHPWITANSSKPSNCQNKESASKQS
Nature of the experiment: Kinase profiling Aurora A. The note with it: for remaining activity at 100 µM: read-out: residual kinase activity, Aurora A.
Source text: as §1

The next experiment concerns the target T3, TLK1 (Homo sapiens, UniProt Q9UKI8).
T3 sequence (Q9UKI8 1-766): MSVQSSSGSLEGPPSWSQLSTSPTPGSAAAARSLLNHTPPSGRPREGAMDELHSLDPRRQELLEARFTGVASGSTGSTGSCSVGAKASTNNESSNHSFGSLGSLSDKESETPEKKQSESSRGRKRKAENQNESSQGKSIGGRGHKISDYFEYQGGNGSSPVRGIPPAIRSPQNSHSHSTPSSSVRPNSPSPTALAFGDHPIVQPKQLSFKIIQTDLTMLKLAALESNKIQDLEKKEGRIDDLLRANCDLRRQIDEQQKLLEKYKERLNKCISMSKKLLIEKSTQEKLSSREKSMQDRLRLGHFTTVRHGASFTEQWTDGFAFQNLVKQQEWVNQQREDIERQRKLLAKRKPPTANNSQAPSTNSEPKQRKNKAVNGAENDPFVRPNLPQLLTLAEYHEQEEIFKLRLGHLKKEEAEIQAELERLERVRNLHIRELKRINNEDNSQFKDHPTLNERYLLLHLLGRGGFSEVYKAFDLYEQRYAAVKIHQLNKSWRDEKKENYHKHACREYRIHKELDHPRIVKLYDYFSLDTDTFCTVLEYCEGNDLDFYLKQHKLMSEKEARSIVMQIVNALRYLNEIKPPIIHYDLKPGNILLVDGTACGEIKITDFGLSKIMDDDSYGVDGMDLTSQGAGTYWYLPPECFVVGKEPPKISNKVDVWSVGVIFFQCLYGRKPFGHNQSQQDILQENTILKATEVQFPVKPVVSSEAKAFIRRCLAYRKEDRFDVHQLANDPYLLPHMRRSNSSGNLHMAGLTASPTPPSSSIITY
Nature of the experiment: Kinase profiling TLK1. The note with it: for remaining activity at 100 µM: read-out: residual kinase activity, TLK1.
Source text: as §1

The next experiment deals with MNK2 (Homo sapiens, UniProt Q9HBH9). Nature of the experiment: Kinase profiling MNK2. The note with it: for remaining activity at 100 µM: read-out: residual kinase activity, MNK2.
MNK2, sequence (Q9HBH9 whole entry, species assumed): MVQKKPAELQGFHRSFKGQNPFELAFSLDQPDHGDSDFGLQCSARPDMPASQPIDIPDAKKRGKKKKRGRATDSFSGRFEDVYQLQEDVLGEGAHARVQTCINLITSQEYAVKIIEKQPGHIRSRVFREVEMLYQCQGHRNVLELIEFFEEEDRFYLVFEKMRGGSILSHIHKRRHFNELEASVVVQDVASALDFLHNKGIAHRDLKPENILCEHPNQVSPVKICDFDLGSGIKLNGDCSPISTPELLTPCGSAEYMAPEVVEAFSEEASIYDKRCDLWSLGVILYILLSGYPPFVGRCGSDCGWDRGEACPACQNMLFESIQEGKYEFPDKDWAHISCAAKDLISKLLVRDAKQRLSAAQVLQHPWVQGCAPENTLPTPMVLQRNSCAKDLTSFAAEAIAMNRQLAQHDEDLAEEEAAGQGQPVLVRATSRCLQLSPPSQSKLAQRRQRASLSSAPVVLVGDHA
Source text: as §1

A further experiment deals with T4, IKKb (Homo sapiens, UniProt O14920).
T4 sequence (O14920 1-756): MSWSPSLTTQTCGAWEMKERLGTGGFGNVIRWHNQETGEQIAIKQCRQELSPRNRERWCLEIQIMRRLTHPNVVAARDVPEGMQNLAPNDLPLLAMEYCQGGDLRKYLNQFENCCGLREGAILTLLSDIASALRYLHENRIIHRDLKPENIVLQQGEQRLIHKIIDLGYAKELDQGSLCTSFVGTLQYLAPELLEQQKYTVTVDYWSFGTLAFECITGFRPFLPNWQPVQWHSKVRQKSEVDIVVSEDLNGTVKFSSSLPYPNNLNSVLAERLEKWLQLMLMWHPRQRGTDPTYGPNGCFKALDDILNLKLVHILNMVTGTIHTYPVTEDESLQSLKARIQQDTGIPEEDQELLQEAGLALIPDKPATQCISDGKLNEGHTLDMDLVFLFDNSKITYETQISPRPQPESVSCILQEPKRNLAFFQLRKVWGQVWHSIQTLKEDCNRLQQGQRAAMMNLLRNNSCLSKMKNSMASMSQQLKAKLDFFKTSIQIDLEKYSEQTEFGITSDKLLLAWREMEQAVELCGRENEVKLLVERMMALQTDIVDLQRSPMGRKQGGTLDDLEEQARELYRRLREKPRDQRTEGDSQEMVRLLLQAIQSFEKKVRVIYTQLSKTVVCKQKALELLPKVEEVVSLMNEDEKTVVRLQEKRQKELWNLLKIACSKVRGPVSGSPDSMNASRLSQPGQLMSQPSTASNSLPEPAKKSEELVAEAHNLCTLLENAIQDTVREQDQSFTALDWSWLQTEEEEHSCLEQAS
Nature of the experiment: Kinase profiling IKKb. The note with it: for remaining activity at 100 µM: read-out: residual kinase activity, IKKb.
Source text: as §1

In another experiment the target is PAK5 (Homo sapiens, UniProt Q9P286). Put plainly: Kinase profiling PAK5. The note with it: for remaining activity at 100 µM: read-out: residual kinase activity, PAK5.
PAK5, sequence (Q9P286 whole entry): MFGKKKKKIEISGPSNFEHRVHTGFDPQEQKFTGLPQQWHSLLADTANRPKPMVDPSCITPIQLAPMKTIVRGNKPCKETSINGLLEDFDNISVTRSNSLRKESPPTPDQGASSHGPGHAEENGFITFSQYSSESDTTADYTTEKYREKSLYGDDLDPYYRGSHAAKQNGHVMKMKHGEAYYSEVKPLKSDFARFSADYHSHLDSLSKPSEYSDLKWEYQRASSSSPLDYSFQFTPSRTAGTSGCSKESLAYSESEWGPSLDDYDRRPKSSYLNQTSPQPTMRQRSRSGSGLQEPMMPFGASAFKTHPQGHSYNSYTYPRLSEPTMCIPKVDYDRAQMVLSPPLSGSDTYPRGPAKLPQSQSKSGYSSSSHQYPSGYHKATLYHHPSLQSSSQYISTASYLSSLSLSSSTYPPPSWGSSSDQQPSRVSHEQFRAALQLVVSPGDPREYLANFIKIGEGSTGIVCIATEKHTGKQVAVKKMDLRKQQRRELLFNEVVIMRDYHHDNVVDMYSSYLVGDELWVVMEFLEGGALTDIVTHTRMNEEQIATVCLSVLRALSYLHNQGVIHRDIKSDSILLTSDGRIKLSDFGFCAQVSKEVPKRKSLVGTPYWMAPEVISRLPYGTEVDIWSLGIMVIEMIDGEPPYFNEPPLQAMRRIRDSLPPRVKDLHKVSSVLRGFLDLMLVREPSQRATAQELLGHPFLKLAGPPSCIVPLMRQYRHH
Source text: as §1

Where [1] appears, read: 100 micromolar inhibitor concentration, 100 is no change.
[2] abbreviates: 100 micromolar inhibitor, 100 = no change.

Like-named read-outs stand apart in the source and are kept apart here.

EPH-A4, sequence (P54764 20-986, species assumed): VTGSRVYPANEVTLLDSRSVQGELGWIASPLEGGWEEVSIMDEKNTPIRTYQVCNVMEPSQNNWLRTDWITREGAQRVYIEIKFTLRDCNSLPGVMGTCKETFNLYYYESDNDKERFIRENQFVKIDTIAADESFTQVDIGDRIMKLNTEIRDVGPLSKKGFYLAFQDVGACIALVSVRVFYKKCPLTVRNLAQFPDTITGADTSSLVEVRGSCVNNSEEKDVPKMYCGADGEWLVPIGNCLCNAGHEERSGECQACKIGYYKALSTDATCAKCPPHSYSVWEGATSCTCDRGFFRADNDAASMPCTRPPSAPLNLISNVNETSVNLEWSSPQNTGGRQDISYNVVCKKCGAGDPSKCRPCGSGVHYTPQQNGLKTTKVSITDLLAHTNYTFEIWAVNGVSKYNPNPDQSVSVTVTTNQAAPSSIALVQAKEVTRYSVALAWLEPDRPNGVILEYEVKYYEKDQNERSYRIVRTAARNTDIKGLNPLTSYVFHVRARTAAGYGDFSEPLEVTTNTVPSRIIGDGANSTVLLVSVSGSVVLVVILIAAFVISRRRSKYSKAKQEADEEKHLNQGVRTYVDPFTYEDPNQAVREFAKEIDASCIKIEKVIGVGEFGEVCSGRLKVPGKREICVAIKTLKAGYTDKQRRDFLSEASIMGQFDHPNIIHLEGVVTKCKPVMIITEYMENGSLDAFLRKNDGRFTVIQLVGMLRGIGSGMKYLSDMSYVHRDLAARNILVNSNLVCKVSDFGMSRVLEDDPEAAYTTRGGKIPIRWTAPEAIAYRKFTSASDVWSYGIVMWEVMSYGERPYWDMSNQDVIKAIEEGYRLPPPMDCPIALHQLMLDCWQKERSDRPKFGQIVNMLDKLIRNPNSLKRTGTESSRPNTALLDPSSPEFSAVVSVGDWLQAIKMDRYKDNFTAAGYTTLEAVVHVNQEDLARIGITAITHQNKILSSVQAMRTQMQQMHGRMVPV

On to `CC(=O)Nc1nc2cc(O)ccc2s1` [Compound 01-66, N-(5-hydroxybenzo[d]thiazol-2-yl)acetamide], for which the remaining activity at 100 µM came to 73% at EPH-A4; 37% on HIPK3; 97% on HIPK1; 44% on NUAK1; 87% on Aurora A; 92% on TLK1. Besides, the remaining activity at 100 µM at MNK2 was found to be 33%; at IKKb, 62%; at PAK5, 72%.
For `CC(=O)Nc1nc2ccc(O)cc2s1` [Compound 01-71], the remaining activity at 100 µM at EPH-A4 (setting [1]) turned out to be 77%; on HIPK3 (setting [1]), 27%; on HIPK1 (setting [1]), 76%; on NUAK1 (setting [1]), 26%; at Aurora A (setting [1]), 68%; on TLK1 (setting [1]), 45%. The remaining activity at 100 µM at MNK2 (setting [1]) is 34%; at IKKb (setting [1]), 63%; at PAK5 (setting [1]) it was 85%.
For the molecule `CC(=O)Nc1nc2ccc(C(F)(F)F)cc2s1` [Compound 01-90], the remaining activity at 100 µM at EPH-A4 (setting [1]) was 45%; at HIPK3 (setting [1]) it was 69%; at HIPK1 (setting [1]), 48%; on NUAK1 (setting [1]), 66%; at Aurora A (setting [1]) it was 81%; at TLK1 (setting [1]), 82%. The remaining activity at 100 µM at MNK2 (setting [1]) amounted to 71%; at IKKb (setting [1]), 75%; on PAK5 (setting [1]), 82%.
Turning to `CC(=O)Nc1nc2ccc(C#N)cc2s1` [Compound 01-94], the remaining activity at 100 µM on EPH-A4 (setting [1]) was 62%; at HIPK3 (setting [1]) it was 38%; at HIPK1 (setting [1]), 37%; on NUAK1 (setting [1]), 46%; at Aurora A (setting [1]), 61%; on TLK1 (setting [1]) it was 53%. In addition, the remaining activity at 100 µM on MNK2 (setting [1]) came out at 50%; on IKKb (setting [1]), 58%; at PAK5 (setting [1]), 70%.
On to `CC(=O)Nc1cccc(NC(=O)c2nc3ccc(O)cc3s2)c1` [Compound 03-07, N-(3-acetamidophenyl)-6-hydroxybenzo[d]thiazole-2-carboxamide], for which the remaining activity at 100 µM on EPH-A4 (setting [2]) turned out to be 95%; at HIPK3 (setting [2]) it was 81%; on HIPK1 (setting [2]), 90%; at NUAK1 (setting [2]), 37%; on Aurora A (setting [2]) it was 110%; at TLK1 (setting [2]), 108%. Moreover, the remaining activity at 100 µM came to 50% at MNK2 (setting [2]), 88% on IKKb (setting [2]) and 82% on PAK5 (setting [2]).
As for `O=C(Nc1nc2cc(O)ccc2s1)c1ccncc1` [Compound 03-11], on EPH-A4 (setting [1]), the “residual kinase activity, EPH-A4” value was 91. The “residual kinase activity, HIPK3” value at HIPK3 (setting [1]) worked out at 106. For the same molecule, the “residual kinase activity, HIPK1” value at HIPK1 (setting [1]) was 75. The “residual kinase activity, NUAK1” value on NUAK1 (setting [1]) was 86. Moreover, on Aurora A (setting [1]), the “residual kinase activity, Aurora A” value came to 106. Moreover, the “residual kinase activity, TLK1” value on TLK1 (setting [1]) is reported as 95. In addition, the “residual kinase activity, MNK2” value at MNK2 (setting [1]) was 75. Moreover, the “residual kinase activity, IKKb” value at IKKb (setting [1]) is reported as 80. Besides, the “residual kinase activity, PAK5” value at PAK5 (setting [1]) is reported as 92.
Consider `O=C(Nc1nc2ccc(O)cc2s1)c1ccccn1` [Compound 03-12], for which, at EPH-A4 (setting [1]), the “residual kinase activity, EPH-A4” value was 78. In addition, at HIPK3 (setting [1]), the “residual kinase activity, HIPK3” value is recorded as 84. For the same molecule, on HIPK1 (setting [1]), the “residual kinase activity, HIPK1” value was found to be 47. Moreover, the “residual kinase activity, NUAK1” value on NUAK1 (setting [1]) is 52. Besides, the “residual kinase activity, Aurora A” value on Aurora A (setting [1]) is recorded as 95. Also, the “residual kinase activity, TLK1” value at TLK1 (setting [1]) is recorded as 96. Besides, the “residual kinase activity, MNK2” value on MNK2 (setting [1]) was found to be 66. The “residual kinase activity, IKKb” value on IKKb (setting [1]) was 84. Also, the “residual kinase activity, PAK5” value on PAK5 (setting [1]) stood at 94.
For `O=C(Nc1nc2cc(O)ccc2s1)c1ccccn1` [Compound 03-13], the “residual kinase activity, EPH-A4” value on EPH-A4 (setting [1]) is on record as 89. In addition, the “residual kinase activity, HIPK3” value at HIPK3 (setting [1]) is recorded as 82. Moreover, the “residual kinase activity, HIPK1” value at HIPK1 (setting [1]) stood at 76. Further, the “residual kinase activity, NUAK1” value on NUAK1 (setting [1]) came to 64. The “residual kinase activity, Aurora A” value on Aurora A (setting [1]) stood at 93. In addition, the “residual kinase activity, TLK1” value on TLK1 (setting [1]) came out at 99. Further, the “residual kinase activity, MNK2” value at MNK2 (setting [1]) was found to be 66. The “residual kinase activity, IKKb” value on IKKb (setting [1]) is reported as 88. In addition, at PAK5 (setting [1]), the “residual kinase activity, PAK5” value is given as 82.
